Experimental data taken from PubChem BioAssay (NCI).
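Five compound concentrations were applied to cells in 96-well plates for 48 hours; endpoints were derived by simple linear interpolation of the resulting dose-response curve. The concentration for full growth arrest is given as TGI.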

Columns and labels:
Assay in all cases: NCI anticancer screen, dose series, 48 h
NCI-H460 lung = system: NCI-H460 lung
SK-MEL-2 melanoma = system: SK-MEL-2 melanoma
A498 renal = system: A498 renal
HOP-92 NSCLC = system: HOP-92 NSCLC
NCI-H226 lung = system: NCI-H226 lung
UACC-62 melanoma = system: UACC-62 melanoma
RXF 393 renal = system: RXF 393 renal
SF-539 CNS = system: SF-539 CNS
ACHN renal = system: ACHN renal
OVCAR-5 ovarian = system: OVCAR-5 ovarian
BT-549 breast = system: BT-549 breast
DU-145 prostate = system: DU-145 prostate
786-0 renal = system: 786-0 renal
SR leukemia = system: SR leukemia
SK-OV-3 ovarian = system: SK-OV-3 ovarian
HCT-116 colon = system: HCT-116 colon
SN12C renal = system: SN12C renal
T-47D breast = system: T-47D breast
SW-620 colon = system: SW-620 colon
OVCAR-3 ovarian = system: OVCAR-3 ovarian
MCF7 breast = system: MCF7 breast
NCI-H23 lung = system: NCI-H23 lung
SNB-19 CNS = system: SNB-19 CNS
MDA-MB-231 breast = system: MDA-MB-231 breast
CCRF-CEM leukemia = system: CCRF-CEM leukemia
HOP-62 NSCLC = system: HOP-62 NSCLC
MOLT-4 leukemia = system: MOLT-4 leukemia
HT29 colon = system: HT29 colon
OVCAR-8 ovarian = system: OVCAR-8 ovarian
A549 NSCLC = system: A549 NSCLC
LOX IMVI melanoma = system: LOX IMVI melanoma
COLO 205 colon = system: COLO 205 colon
SK-MEL-5 melanoma = system: SK-MEL-5 melanoma
HS 578T breast = system: HS 578T breast
OVCAR-4 ovarian = system: OVCAR-4 ovarian
M14 melanoma = system: M14 melanoma
KM12 colon = system: KM12 colon
SF-268 CNS = system: SF-268 CNS
K-562 leukemia = system: K-562 leukemia
HCC-2998 colon = system: HCC-2998 colon
HCT-15 colon = system: HCT-15 colon
UACC-257 melanoma = system: UACC-257 melanoma
UO-31 renal = system: UO-31 renal
TK-10 renal = system: TK-10 renal
SF-295 CNS = system: SF-295 CNS
RPMI-8226 leukemia = system: RPMI-8226 leukemia
SK-MEL-28 melanoma = system: SK-MEL-28 melanoma
MDA-MB-435 = system: MDA-MB-435
U251 CNS = system: U251 CNS
MDA-N = system: MDA-N
SNB-75 CNS = system: SNB-75 CNS
NCI-H522 lung = system: NCI-H522 lung
MALME-3M melanoma = system: MALME-3M melanoma
PC-3 prostate = system: PC-3 prostate
NCI/ADR-RES ovarian = system: NCI/ADR-RES ovarian
CAKI-1 renal = system: CAKI-1 renal
EKVX NSCLC = system: EKVX NSCLC
IGROV1 ovarian = system: IGROV1 ovarian
HL-60(TB) leukemia = system: HL-60(TB) leukemia

CCOC(=O)c1c(N2CCOCC2)[nH]c(=O)c(C(c2cccs2)c2c(O)c(C(=O)OCC)c(N3CCOCC3)[nH]c2=O)c1O
TGI (NCI-H460 lung): > 100 µM
TGI (SK-MEL-2 melanoma): > 100 µM
TGI (A498 renal): > 100 µM
TGI (HOP-92 NSCLC): > 100 µM
TGI (NCI-H226 lung): > 100 µM
TGI (UACC-62 melanoma): > 100 µM
TGI (RXF 393 renal): > 100 µM
TGI (SF-539 CNS): > 100 µM
TGI (ACHN renal): > 100 µM
TGI (OVCAR-5 ovarian): > 100 µM
TGI (BT-549 breast): > 100 µM
TGI (DU-145 prostate): > 100 µM
TGI (786-0 renal): > 100 µM
TGI (SR leukemia): > 100 µM
TGI (SK-OV-3 ovarian): > 100 µM
TGI (HCT-116 colon): > 100 µM
TGI (SN12C renal): > 100 µM
TGI (T-47D breast): > 100 µM
TGI (SW-620 colon): > 100 µM
TGI (OVCAR-3 ovarian): > 100 µM
TGI (MCF7 breast): > 100 µM
TGI (NCI-H23 lung): > 100 µM
TGI (SNB-19 CNS): > 100 µM
TGI (MDA-MB-231 breast): > 100 µM
TGI (CCRF-CEM leukemia): > 100 µM
TGI (HOP-62 NSCLC): > 100 µM
TGI (MOLT-4 leukemia): > 100 µM
TGI (HT29 colon): > 100 µM
TGI (OVCAR-8 ovarian): > 100 µM
TGI (A549 NSCLC): > 100 µM
TGI (LOX IMVI melanoma): > 100 µM
TGI (COLO 205 colon): > 100 µM
TGI (SK-MEL-5 melanoma): > 100 µM
TGI (HS 578T breast): > 100 µM
TGI (OVCAR-4 ovarian): > 100 µM
TGI (M14 melanoma): > 100 µM
TGI (KM12 colon): > 100 µM
TGI (SF-268 CNS): > 100 µM
TGI (K-562 leukemia): > 100 µM
TGI (HCC-2998 colon): > 100 µM
TGI (HCT-15 colon): > 100 µM
TGI (UACC-257 melanoma): > 100 µM
TGI (UO-31 renal): > 100 µM
TGI (TK-10 renal): > 100 µM
TGI (SF-295 CNS): > 100 µM
TGI (RPMI-8226 leukemia): > 100 µM
TGI (SK-MEL-28 melanoma): > 100 µM
TGI (MDA-MB-435): > 100 µM
TGI (U251 CNS): > 100 µM
TGI (MDA-N): > 100 µM
TGI (SNB-75 CNS): > 100 µM
TGI (NCI-H522 lung): > 100 µM
TGI (MALME-3M melanoma): > 100 µM
TGI (PC-3 prostate): > 100 µM
TGI (NCI/ADR-RES ovarian): > 100 µM
TGI (CAKI-1 renal): > 100 µM
TGI (EKVX NSCLC): > 100 µM

CN(C)Cc1cc(C(=O)/C=C/c2cccc(Cl)c2)cc(CN(C)C)c1O
TGI (NCI-H460 lung): 11.4 µM
TGI (SK-MEL-2 melanoma): 26 µM
TGI (A498 renal): 14.2 µM
TGI (HOP-92 NSCLC): 18.2 µM
TGI (NCI-H226 lung): 19.6 µM
TGI (UACC-62 melanoma): 22.3 µM
TGI (RXF 393 renal): 23.6 µM
TGI (SF-539 CNS): 19.5 µM
TGI (ACHN renal): 10.3 µM
TGI (OVCAR-5 ovarian): 19 µM
TGI (BT-549 breast): 25.8 µM
TGI (DU-145 prostate): 19.2 µM
TGI (786-0 renal): 15.7 µM
TGI (SR leukemia): 6.93 µM
TGI (HCT-116 colon): 13.3 µM
TGI (SN12C renal): 11.4 µM
TGI (T-47D breast): 19.9 µM
TGI (SW-620 colon): 17.5 µM
TGI (OVCAR-3 ovarian): 9.21 µM
TGI (IGROV1 ovarian): 14.9 µM
TGI (MCF7 breast): 23.3 µM
TGI (NCI-H23 lung): 37.9 µM
TGI (SNB-19 CNS): 69.9 µM
TGI (MDA-MB-231 breast): 8.87 µM
TGI (CCRF-CEM leukemia): 8.25 µM
TGI (HL-60(TB) leukemia): 4.58 µM
TGI (HOP-62 NSCLC): 13.7 µM
TGI (MOLT-4 leukemia): 14.1 µM
TGI (HT29 colon): 16.6 µM
TGI (OVCAR-8 ovarian): 61.3 µM
TGI (A549 NSCLC): 28.8 µM
TGI (LOX IMVI melanoma): 10.9 µM
TGI (COLO 205 colon): 3.79 µM
TGI (SK-MEL-5 melanoma): 6.92 µM
TGI (HS 578T breast): 32.7 µM
TGI (M14 melanoma): 15.5 µM
TGI (KM12 colon): 19.7 µM
TGI (SF-268 CNS): 24.1 µM
TGI (K-562 leukemia): 11.4 µM
TGI (HCC-2998 colon): 23.8 µM
TGI (HCT-15 colon): 12.7 µM
TGI (UACC-257 melanoma): 19.9 µM
TGI (UO-31 renal): 19.5 µM
TGI (TK-10 renal): 22 µM
TGI (SF-295 CNS): 27 µM
TGI (RPMI-8226 leukemia): 7.73 µM
TGI (SK-MEL-28 melanoma): 17.1 µM
TGI (MDA-MB-435): 12.6 µM
TGI (U251 CNS): 12.3 µM
TGI (MDA-N): 10.3 µM
TGI (SNB-75 CNS): 6.43 µM
TGI (NCI-H522 lung): 33 µM
TGI (PC-3 prostate): 22.8 µM
TGI (NCI/ADR-RES ovarian): > 100 µM
TGI (CAKI-1 renal): 4.3 µM
TGI (EKVX NSCLC): 25.4 µM
